Legend:
kochia [1] = assay: Test F preemergence; assay type: in vivo, Kochia scoparia; conditions: 21 days, scale 0 to 100
Text: Seeds of plant species selected from bermudagrass (Cynodon dactylon), surinam grass (Brachiaria decumbens), large (Lg) crabgrass (Digitaria sanguinalis), crabgrass, naked (naked crabgrass, Digitaria nuda), foxtail, green (green foxtail, Setaria viridis), johnsongrass (Sorghum halepense), kochia (Kochia scoparia), morningglory (pitted morningglory, Ipomoea lacunosa), nutsedge, purple (purple nutsedge, Cyperus rotundus), ragweed (common ragweed, Ambrosia elatior), mustard, black (black mustard, Brassica nigra), guineagrass (Panicum maximum), dallisgrass (Paspalum dilatatum), barnyardgrass (Echinochloa crus-galli), sandbur (southern sandbur, Cenchrus echinatus), sowthistle (common sowthistle, Sonchus oleraceous), Italian ryegrass (Lolium multiflorum), signalgrass (broadleaf signalgrass, Brachiaria platyphylla), dayflower (Virginia (VA) dayflower, Commelina virginica), bluegrass (annual bluegrass, Poa annua), quackgrass (Elytrigia repens), mallow (common mallow, Malva sylvestris), buckwheat, wild (wild buckwheat, Polygonum convolvulus), leafy spurge (Euphorbia esula), chickweed (common chickweed, Stellaria media), wild poinsettia (Euphorbia heterophylla), and pigweed (Amaranthus retroflexus) were planted into a blend of loam soil and sand and treated preemergence with test chemicals formulated in a non-phytotoxic solvent mixture which included a surfactant.
Treated plants and controls were maintained in a greenhouse for 21 days, after which time all species were compared to controls and visually evaluated. Plant response ratings, summarized in Table F, are based on a scale of 0 to 100 where 0 is no effect and 100 is complete control. A dash (-) response means no test result.

corn = assay: Test E preemergence; assay type: in vivo, Zea mays; conditions: for Corn plant response rating: scale 0 to 100 (0 no effect, 100 complete control); for Plant response rating, Corn: scale 0 to 100, 0 no effect, 100 complete control
Procedure, shortened: (§1)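 Test chemicals formulated in a non-phytotoxic solvent mixture containing a surfactant were applied preemergence to seeds in silt loam soil or postemergence to plants at the 1- to 4-leaf stage in potting mix. After 14 to 21 days in a greenhouse, injury was visually rated against controls on a 0-100 scale (0 = no effect, 100 = complete control).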

lambsquarters = assay: Test E preemergence; assay type: in vivo, Chenopodium album; conditions: for Lambsquarters plant response rating: scale 0 to 100 (0 no effect, 100 complete control); for Plant response rating, Lambsquarters: scale 0 to 100, 0 no effect, 100 complete control
Procedure, shortened: as §1

surinam grass = assay: Test E preemergence; assay type: in vivo, Brachiaria decumbens; conditions: for Surinam Grass plant response rating: scale 0 to 100 (0 no effect, 100 complete control); for Plant response rating, Surinam Grass: scale 0 to 100, 0 no effect, 100 complete control
Procedure, shortened: as §1

johnsongrass = assay: Test E preemergence; assay type: in vivo, Sorghum halepense; conditions: for Johnsongrass plant response rating: scale 0 to 100 (0 no effect, 100 complete control); for Plant response rating, Johnsongrass: scale 0 to 100, 0 no effect, 100 complete control
Procedure, shortened: as §1

nightshade = assay: Test E preemergence; assay type: in vivo, Solanum ptycanthum; conditions: for Nightshade plant response rating: scale 0 to 100 (0 no effect, 100 complete control); for Plant response rating, Nightshade: scale 0 to 100, 0 no effect, 100 complete control
Procedure, shortened: as §1

kochia [2] = assay: Test E preemergence; assay type: in vivo, Kochia scoparia; conditions: for Kochia plant response rating: scale 0 to 100 (0 no effect, 100 complete control); for Plant response rating, Kochia: scale 0 to 100, 0 no effect, 100 complete control
Procedure, shortened: as §1

[3] = system: waterhemp_RES1 (ALS & Triazine resistant common waterhemp); assay: Test E postemergence; assay type: in vivo, Amaranthus rudis
Procedure, shortened: as §1

[4] = system: waterhemp_RES2 (ALS & HPPD resistant common waterhemp); assay: Test E postemergence; assay type: in vivo, Amaranthus rudis
Procedure, shortened: as §1

waterhemp = assay: Test E postemergence; assay type: in vivo, Amaranthus rudis
Procedure, shortened: as §1

Brazilian crabgrass = assay: Test E postemergence; assay type: in vivo, Digitaria horizontalis
Procedure, shortened: as §1

sandbur = assay: Test E postemergence; assay type: in vivo, Cenchrus echinatus
Procedure, shortened: as §1

[5] = Postemergence, 31 g ai/ha, scale 0 to 100
[6] = Postemergence, 62 g ai/ha, scale 0 to 100
[7] = Postemergence, 125 g ai/ha, scale 0 to 100
[8] = Postemergence, 250 g ai/ha, scale 0 to 100
[9] = postemergence, 16 g ai/ha, scale 0 to 100, 0 no effect, 100 complete control

SMILES: N#Cc1cccc(Oc2ncc(Cl)cn2)c1-n1cc(OC(F)F)cn1 [Compound 97]
- Plant response rating, Kochia (kochia [1]; 16 g ai/ha): 100
- Plant response rating, Kochia (kochia [1]; 31 g ai/ha): 100
- Plant response rating, Kochia (kochia [1]; 62 g ai/ha): 100
- Plant response rating, Kochia (kochia [1]; 125 g ai/ha): 100
- Plant response rating, Kochia (kochia [1]; 250 g ai/ha): 100

SMILES: N#Cc1cnn(-c2c(C#N)cccc2Oc2ncc(Cl)cn2)c1 [Compound 200]
- Corn plant response rating (corn; 16 g ai/ha): 0
- Corn plant response rating (corn; 31 g ai/ha): 5
- Corn plant response rating (corn; 62 g ai/ha): 30
- Plant response rating, Corn (corn; 125 g ai/ha): 30
- Plant response rating, Corn (corn; 250 g ai/ha): 75
- Lambsquarters plant response rating (lambsquarters; 31 g ai/ha): 65
- Lambsquarters plant response rating (lambsquarters; 62 g ai/ha): 80
- Plant response rating, Lambsquarters (lambsquarters; 125 g ai/ha): 98
- Plant response rating, Lambsquarters (lambsquarters; 250 g ai/ha): 100
- Surinam Grass plant response rating (surinam grass; 31 g ai/ha): 5
- Surinam Grass plant response rating (surinam grass; 62 g ai/ha): 70
- Plant response rating, Surinam Grass (surinam grass; 125 g ai/ha): 100
- Plant response rating, Surinam Grass (surinam grass; 250 g ai/ha): 100
- Johnsongrass plant response rating (johnsongrass; 31 g ai/ha): 15
- Johnsongrass plant response rating (johnsongrass; 62 g ai/ha): 25
- Plant response rating, Johnsongrass (johnsongrass; 125 g ai/ha): 30
- Plant response rating, Johnsongrass (johnsongrass; 250 g ai/ha): 75
- Nightshade plant response rating (nightshade; 31 g ai/ha): 10
- Nightshade plant response rating (nightshade; 62 g ai/ha): 85
- Plant response rating, Nightshade (nightshade; 125 g ai/ha): 100
- Plant response rating, Nightshade (nightshade; 250 g ai/ha): 100
- Kochia plant response rating (kochia [2]; 31 g ai/ha): 60
- Kochia plant response rating (kochia [2]; 62 g ai/ha): 95
- Plant response rating, Kochia (kochia [2]; 125 g ai/ha): 100
- Plant response rating, Kochia (kochia [2]; 250 g ai/ha): 100
- Plant response rating, Waterhemp_RES1 [3, 5]: 80
- Plant response rating, Waterhemp_RES1 [3, 6]: 90
- Plant response rating, Waterhemp_RES1 [3, 7]: 100
- Plant response rating, Waterhemp_RES1 [3, 8]: 100
- Plant response rating, Waterhemp_RES1 [3, 9]: 70
- Plant response rating, Waterhemp_RES2 [4, 5]: 90
- Plant response rating, Waterhemp_RES2 [4, 6]: 90
- Plant response rating, Waterhemp_RES2 [4, 7]: 100
- Plant response rating, Waterhemp_RES2 [4, 8]: 100
- Plant response rating, Waterhemp_RES2 [4, 9]: 90
- Plant response rating, Waterhemp (waterhemp; [5]): 90
- Plant response rating, Waterhemp (waterhemp; [6]): 95
- Plant response rating, Waterhemp (waterhemp; [7]): 95
- Plant response rating, Waterhemp (waterhemp; [8]): 100
- Plant response rating, Waterhemp (waterhemp; [9]): 80
- Plant response rating, Crabgrass, Brazil (Brazilian crabgrass; [5]): 15
- Plant response rating, Crabgrass, Brazil (Brazilian crabgrass; [6]): 30
- Plant response rating, Crabgrass, Brazil (Brazilian crabgrass; [7]): 50
- Plant response rating, Crabgrass, Brazil (Brazilian crabgrass; [8]): 60
- Plant response rating, Crabgrass, Brazil (Brazilian crabgrass; [9]): 10
- Plant response rating, Sandbur (sandbur; [5]): 0
- Plant response rating, Sandbur (sandbur; [6]): 0
- Plant response rating, Sandbur (sandbur; [7]): 0
- Plant response rating, Sandbur (sandbur; [8]): 10
- Plant response rating, Sandbur (sandbur; [9]): 0

SMILES: N#Cc1cccc(Oc2ncc(Cl)cn2)c1-n1cc(Cl)cn1 [Compound 72]
- Corn plant response rating (corn; 16 g ai/ha): 0
- Corn plant response rating (corn; 31 g ai/ha): 0
- Corn plant response rating (corn; 62 g ai/ha): 0
- Plant response rating, Corn (corn; 125 g ai/ha): 0
- Plant response rating, Corn (corn; 250 g ai/ha): 0
- Lambsquarters plant response rating (lambsquarters; 16 g ai/ha): 0
- Lambsquarters plant response rating (lambsquarters; 31 g ai/ha): 90
- Lambsquarters plant response rating (lambsquarters; 62 g ai/ha): 100
- Plant response rating, Lambsquarters (lambsquarters; 125 g ai/ha): 100
- Plant response rating, Lambsquarters (lambsquarters; 250 g ai/ha): 100
- Surinam Grass plant response rating (surinam grass; 16 g ai/ha): 20
- Surinam Grass plant response rating (surinam grass; 31 g ai/ha): 20
- Surinam Grass plant response rating (surinam grass; 62 g ai/ha): 20
- Plant response rating, Surinam Grass (surinam grass; 125 g ai/ha): 10
- Plant response rating, Surinam Grass (surinam grass; 250 g ai/ha): 30
- Johnsongrass plant response rating (johnsongrass; 16 g ai/ha): 0
- Johnsongrass plant response rating (johnsongrass; 31 g ai/ha): 0
- Johnsongrass plant response rating (johnsongrass; 62 g ai/ha): 40
- Plant response rating, Johnsongrass (johnsongrass; 125 g ai/ha): 95
- Plant response rating, Johnsongrass (johnsongrass; 250 g ai/ha): 98
- Nightshade plant response rating (nightshade; 16 g ai/ha): 0
- Nightshade plant response rating (nightshade; 31 g ai/ha): 65
- Nightshade plant response rating (nightshade; 62 g ai/ha): 100
- Plant response rating, Nightshade (nightshade; 125 g ai/ha): 98
- Plant response rating, Nightshade (nightshade; 250 g ai/ha): 100
- Kochia plant response rating (kochia [2]; 16 g ai/ha): 10
- Kochia plant response rating (kochia [2]; 31 g ai/ha): 75
- Kochia plant response rating (kochia [2]; 62 g ai/ha): 98
- Plant response rating, Kochia (kochia [2]; 125 g ai/ha): 100
- Plant response rating, Kochia (kochia [2]; 250 g ai/ha): 100
- Plant response rating, Waterhemp_RES1 [3, 6]: 75
- Plant response rating, Waterhemp_RES1 [3, 7]: 95
- Plant response rating, Waterhemp_RES2 [4, 6]: 80
- Plant response rating, Waterhemp_RES2 [4, 7]: 90
- Plant response rating, Waterhemp (waterhemp; [6]): 80
- Plant response rating, Waterhemp (waterhemp; [7]): 98
- Plant response rating, Crabgrass, Brazil (Brazilian crabgrass; [6]): 10
- Plant response rating, Crabgrass, Brazil (Brazilian crabgrass; [7]): 20
- Plant response rating, Sandbur (sandbur; [6]): 0
- Plant response rating, Sandbur (sandbur; [7]): 0

Source: patent US9695155B2, “Herbicidal substituted pyrimidinyloxy benzene compounds” (E. I. DU PONT DE NEMOURS AND COMPANY, priority 2013, dated 2017)
